This note sets out measurements from patent US11479802B2, “Assays for screening activity of modulators of members of the hydroxy steroid (17-beta) dehydrogenase (HSD17B) family” (Regeneron Pharmaceuticals, Inc., priority 2017, dated 2022).

The test concerns the target T1, human HSD17B13 (Homo sapiens, UniProt Q7Z5P4).
T1 sequence (Q7Z5P4 20-300): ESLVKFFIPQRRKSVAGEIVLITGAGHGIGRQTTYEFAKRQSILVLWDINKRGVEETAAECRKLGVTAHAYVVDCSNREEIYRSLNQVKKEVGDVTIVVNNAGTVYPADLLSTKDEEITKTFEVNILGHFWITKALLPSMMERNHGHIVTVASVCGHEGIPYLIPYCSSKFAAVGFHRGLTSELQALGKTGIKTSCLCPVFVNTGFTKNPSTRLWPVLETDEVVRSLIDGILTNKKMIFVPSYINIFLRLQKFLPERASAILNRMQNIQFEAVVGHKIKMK
The test can be described thus: Substrate screening of steroid and bioactive lipid libraries against purified recombinant HSD17B13 (NADH-linked luciferase assay). The class given is biochemical. The conditions noted are these: for HSD17B13 Enzymatic Activity Relative Light Units: 500 μM NAD+, 100 ng enzyme, 3 hours at 23° C.; for HSD17B13 Enzymatic Activity Percent Estradiol Control: normalized to 50 μM estradiol after subtraction of 5% DMSO. In outline: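 Substrates (bioactive lipids 5 μM, steroids 50 μM; 5% DMSO) tested with 500 μM NAD+ and 100 ng recombinant human HSD17B13 in 0.2 M Tris-HCl pH 7.5, 3 h, 23° C. Luminescent NADH detection followed 1 h later; RLU normalized to estradiol (50 μM, 100%) and DMSO (0%) controls.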

The mark [1] stands for this setting: Bioactive Lipid Library, 5 μM bioactive lipid (Estradiol Control 50 μM).
Setting [2] is: Bioactive Lipid Library, 5 μM bioactive lipid.

Where a name gives a salt, the structure may show the parent alone.

Take `CCCCC/C=C\C/C=C\C[C@@H](O)/C=C/C=C\CCCC(=O)O` [9(R)-HETE]: under setting [1], the “HSD17B13 Enzymatic Activity Relative Light Units” value worked out at 1656640 RLU. The “HSD17B13 Enzymatic Activity Percent Estradiol Control” value under setting [2] is 101.86%.
On the same counts, the results for `CC/C=C\C[C@H](O)/C=C/[C@H]1C(=O)C[C@H](O)[C@@H]1C/C=C\CCCC(=O)O` [Prostaglandin D3] are 298960 RLU and 1.25%.
In the case of `O=P(O)(O)O[C@@H]1[C@H](O)[C@H](O)[C@@H](OP(=O)(O)O)[C@H](OP(=O)(O)O)[C@H]1O` [D-myo-Inositol-1,4,5-triphosphate (potassium salt)], the “HSD17B13 Enzymatic Activity Relative Light Units” value under setting [1] is 358400 RLU. Further, the “HSD17B13 Enzymatic Activity Percent Estradiol Control” value under setting [2] stood at 2.52%.
For the compound `C[C@@H](O)CCC[C@@H](O)/C=C/[C@H]1[C@H](O)CC(=O)[C@@H]1C/C=C\CCCC(=O)O` [15(R),19(R)-hydroxy Prostaglandin E2], the “HSD17B13 Enzymatic Activity Relative Light Units” value under setting [1] turned out to be 346000 RLU. In addition, the “HSD17B13 Enzymatic Activity Percent Estradiol Control” value under setting [2] is 4.97%.
Turning to `CCCCC[C@H]1O[C@H]1C/C=C\C/C=C\C/C=C\CCCC(=O)NCCO` [14(15)-EET Ethanolamide], the “HSD17B13 Enzymatic Activity Relative Light Units” value under setting [1] worked out at 428760 RLU. For the same compound, the “HSD17B13 Enzymatic Activity Percent Estradiol Control” value under setting [2] is 7.83%.
`C[C@]12CCC(=O)C=C1CC[C@@H]1[C@@H]2C(=O)C[C@@]2(C)[C@H]1CC[C@]2(O)C(=O)CO` [Cortisone]: for the setting “Steroid Library, 50 μM steroid”, the “HSD17B13 Enzymatic Activity Relative Light Units” value is listed as 204080 RLU and the “HSD17B13 Enzymatic Activity Percent Estradiol Control” value came out at 0.76%.
As to `CCCCC[C@H](O)C/C=C1/C(=O)C=C[C@@H]1C/C=C\CCCC(=O)O` [Δ12-Prostaglandin J2], under setting [1], the “HSD17B13 Enzymatic Activity Relative Light Units” value is given as 343320 RLU. Moreover, the “HSD17B13 Enzymatic Activity Percent Estradiol Control” value under setting [2] came out at 4.76%.
For `CCCCC[C@@H](O)/C=C/C=C\CCCCCCCC(=O)O` [13(R)-HODE] the same measures were 1105960 RLU and 60.91%.
For `CCCCC[C@H](O)/C=C/[C@@H]1[C@@H](C/C=C\CC(=O)O)[C@@H](O)C[C@@H]1O` [2,3-dinor-11β-Prostaglandin F2α] the same measures were 265000 RLU and −1.43%.
As to `CCCCC/C=C\C/C=C\C/C=C\C=C\[C@@H](O)CCCC(=O)OC` (racemic) [(±)5-HETE methyl ester], the “HSD17B13 Enzymatic Activity Relative Light Units” value under setting [1] stood at 337600 RLU. Also, the “HSD17B13 Enzymatic Activity Percent Estradiol Control” value under setting [2] is given as 3.78%.
As to `C[C@@H]1C[C@@]2(C)[C@@H](CC[C@@H]3[C@@H]2CC[C@@]2(C)[C@H]3CC[C@]2(C)O)CC1=O` [Superdrol], where the note is “Steroid Library, 50 μM steroid”, the “HSD17B13 Enzymatic Activity Relative Light Units” value worked out at 105920 RLU and the “HSD17B13 Enzymatic Activity Percent Estradiol Control” value is −0.95%.
Turning to `CCCCC[C@H](O)/C=C/[C@H]1C(=O)CC(=O)[C@@H]1C/C=C\CCCC(=O)O` [Prostaglandin K2], the “HSD17B13 Enzymatic Activity Relative Light Units” value under setting [1] was determined as 155600 RLU. Besides, under setting [2], the “HSD17B13 Enzymatic Activity Percent Estradiol Control” value is −10.08%.
For the compound `CCCCC[C@H](O)/C=C/C=C\C/C=C\C/C=C\CCCC(=O)NCCO` [15(S)-HETE Ethanolamide], the “HSD17B13 Enzymatic Activity Relative Light Units” value under setting [1] was 535680 RLU. The “HSD17B13 Enzymatic Activity Percent Estradiol Control” value under setting [2] amounted to 19.97%.
Take `CC#CCC(C)[C@H](O)/C=C/[C@@H]1[C@H]2C/C(=C/CCCC(=O)O)C[C@H]2C[C@H]1O` (some centres unmarked) [Iloprost]: the “HSD17B13 Enzymatic Activity Relative Light Units” value under setting [1] worked out at 358880 RLU. The “HSD17B13 Enzymatic Activity Percent Estradiol Control” value under setting [2] is on record as 5.99%.
On the same counts, the results for `CCCCCC(=O)CC[C@@H]1[C@@H](C/C=C\CCCC(=O)O)[C@@H](O)C[C@@H]1O` [11β-13,14-dihydro-15-keto Prostaglandin F2α] are 310000 RLU and 2.13%.
For `CCCCCCCCCCCCCCCC(=O)OC[C@H](COP(=O)([O-])OCC[N+](C)(C)C)OC(=O)CCCC(=O)O` [PGPC] the same measures were 371440 RLU and 6.98%.
For `O=C(O)CCC/C=C\C[C@@H]1[C@@H](/C=C/[C@@H](O)COc2ccc(I)cc2)[C@H]2CC[C@@H]1O2` [I-BOP] the same measures were 358960 RLU and 6.00%.
For Epiandrosterone acetate, under “Steroid Library, 50 μM steroid”, the “HSD17B13 Enzymatic Activity Relative Light Units” value is 210960 RLU and the “HSD17B13 Enzymatic Activity Percent Estradiol Control” value is on record as 0.88%.
As for `C[C@]12CC[C@H](O)C[C@H]1CC[C@@H]1[C@@H]2CC[C@]2(C)[C@@](O)(c3ccoc3)CC[C@]12O` [Rostafuroxin], where the note is “Steroid Library, 50 μM steroid”, the “HSD17B13 Enzymatic Activity Relative Light Units” value was 187520 RLU and the “HSD17B13 Enzymatic Activity Percent Estradiol Control” value is given as 0.47%.
For `C[C@]12CCC(=O)C[C@@H]1CC[C@@H]1[C@@H]2[C@@H](O)C[C@@]2(C)[C@H]1CC[C@]2(O)C(=O)CO` [5alpha-dihydrocortisol] the same measures were 139720 RLU and −0.36%.
Turning to `CCCCC/C=C\C=C\C(O)C/C=C\C/C=C\CCCC(=O)O` (racemic) [(±)11-HETE], under setting [1], the “HSD17B13 Enzymatic Activity Relative Light Units” value is 767720 RLU. The “HSD17B13 Enzymatic Activity Percent Estradiol Control” value under setting [2] is 35.76%.
For `CCCCC/C=C\C=C\[C@@H](O)C/C=C\C/C=C\CCCC(=O)O` [11(S)-HETE] the same measures were 696400 RLU and 30.46%.
For `C[C@@H](O)CCC[C@H](O)/C=C/[C@H]1C=CC(=O)[C@@H]1C/C=C\CCCC(=O)O` [19(R)-hydroxy Prostaglandin A2] the same measures were 323320 RLU and 3.18%.
On to `CCCCC[C@H](O)/C=C/[C@@H]1[C@@H](C/C=C\CCCC(=O)O)[C@@H]2C[C@H]1OO2` [Prostaglandin H2], for which, under setting [1], the “HSD17B13 Enzymatic Activity Relative Light Units” value amounted to 166640 RLU. In addition, the “HSD17B13 Enzymatic Activity Percent Estradiol Control” value under setting [2] is −9.20%.
Turning to `CCCCC/C=C\C/C=C\C[C@H]1O[C@H]1C/C=C\CCCC(=O)NCCO` [8(9)-EET Ethanolamide], the “HSD17B13 Enzymatic Activity Relative Light Units” value under setting [1] was 446000 RLU. Further, under setting [2], the “HSD17B13 Enzymatic Activity Percent Estradiol Control” value is recorded as 9.14%.
For `CCCCC/C=C\C[C@H](O)/C=C/C=C\CCC(=O)O` [tetranor-12(S)-HETE] the same measures were 379280 RLU and 4.10%.
Regarding `CC/C=C\C[C@H](O)/C=C/[C@H]1OC(O)C[C@H](O)[C@@H]1C/C=C\CCCC(=O)O` (some centres unmarked) [Thromboxane B3], the “HSD17B13 Enzymatic Activity Relative Light Units” value under setting [1] is 348080 RLU. Besides, the “HSD17B13 Enzymatic Activity Percent Estradiol Control” value under setting [2] was 5.14%.
On the same counts, the results for `CCCCC/C=C\C[C@@H](O)/C=C/c1cccc(C[C@@H](O)CCCCO)n1` [U-75302] are 425520 RLU and 7.59%.
Consider `CCCCC/C=C\C[C@@H](O)/C=C/C=C/C=C\[C@@H](O)CCCC(=O)NCCO` [Leukotriene B4 Ethanolamide], for which, under setting [1], the “HSD17B13 Enzymatic Activity Relative Light Units” value was 1948920 RLU. In addition, under setting [2], the “HSD17B13 Enzymatic Activity Percent Estradiol Control” value came out at 131.68%.
Consider `CC/C=C\C/C=C\C/C=C\CC(O)/C=C/C=C\C/C=C\CCC(=O)O` (racemic) [(±)11-HDHA], for which the “HSD17B13 Enzymatic Activity Relative Light Units” value under setting [1] worked out at 1259280 RLU. Also, the “HSD17B13 Enzymatic Activity Percent Estradiol Control” value under setting [2] was found to be 72.31%.
Take `C[C@@H](O)CCC[C@H](O)/C=C/[C@@H]1[C@@H](CCCCCCC(=O)O)[C@@H](O)C[C@H]1O` [19(R)-hydroxy Prostaglandin F1α]: under setting [1], the “HSD17B13 Enzymatic Activity Relative Light Units” value turned out to be 207560 RLU. Under setting [2], the “HSD17B13 Enzymatic Activity Percent Estradiol Control” value is −5.97%.
Regarding `CC/C=C\C/C=C\C/C=C\C=C\C(O)C/C=C\CCCC(=O)O` (racemic) [(±)8-HEPE], under setting [1], the “HSD17B13 Enzymatic Activity Relative Light Units” value was 472800 RLU. Besides, the “HSD17B13 Enzymatic Activity Percent Estradiol Control” value under setting [2] is 13.83%.
As to `O=P([O-])(O)OC1[C@@H](O)[C@H](OP(=O)([O-])O)C(OP(=O)([O-])O)[C@H](OP(=O)([O-])O)[C@H]1O.[Na+].[Na+].[Na+].[Na+]` (stereo partly drawn) [D-myo-Inositol-1,2,3,5-tetraphosphate (sodium salt)], the “HSD17B13 Enzymatic Activity Relative Light Units” value under setting [1] amounted to 430640 RLU. For the same compound, the “HSD17B13 Enzymatic Activity Percent Estradiol Control” value under setting [2] is on record as 7.98%.
On the same counts, the results for `CCCCC/C=C\C/C=C\C/C=C\CC#CCCCC(=O)O` [5,6-dehydro Arachidonic Acid] are 210160 RLU and −8.68%.
On to `CCC(O)C(O)C/C=C\C/C=C\C/C=C\C/C=C\CCCC(=O)O` (racemic) [(±)17(18)-DiHETE], for which the “HSD17B13 Enzymatic Activity Relative Light Units” value under setting [1] worked out at 369120 RLU. In addition, the “HSD17B13 Enzymatic Activity Percent Estradiol Control” value under setting [2] is listed as 3.33%.
On the same counts, the results for `CCCCC[C@H](O)/C=C/[C@@H]1[C@@H](C/C=C\CCCC(=O)NCCCCCNC(=O)CCCC[C@H]2SC[C@@H]3NC(=O)N[C@@H]32)[C@@H](O)C[C@H]1O` [Prostaglandin F2α-biotin] are 340200 RLU and 1.14%.
On the same counts, the results for `CCCCCC(=O)/C=C/C=C\C/C=C\C/C=C\CCCC(=O)O` [15-OxoETE] are 616120 RLU and −8.98%.
